Reference: ChEMBL document CHEMBL1157539, “Thousands of chemical starting points for antimalarial lead identification” (Nature, 2010)

These compounds were tested on Plasmodium falciparum (assay: GSK_TCMDC: Inhibition of Plasmodium falciparum 3D7 in whole erythrocytes, using parasite LDH activity as an index of growth.). Conditions: Plasmodium falciparum, 3D7.
Type: functional, organism-based

SMILES	XC50
Nc1c2ccccc2nc2cc(Cl)ccc12	715 nM
CCc1cc2c3c(N)nc(N)nc3ccc2n1C(C)CC (stereo not drawn)	3.2 nM
C=CCOc1ccccc1CNCC(O)c1cc(Br)cs1 (stereo not drawn)	332 nM
O=C(Cn1c(CCc2cccc(F)c2F)cc(=O)c2ccccc21)N(Cc1ccc(-c2ccc(C(F)(F)F)cc2)cc1)C1CCN(CCO)CC1	1320 nM
CC(C)N1CCC(N(Cc2ccc(-c3ccc(C(F)(F)F)cc3)cc2)C(=O)Cn2c(CCc3cccc(F)c3F)cc(=O)c3cn(C)nc32)CC1	1170 nM
O=C(/C=C/c1ccc(Cl)c(Cl)c1)NCCCCCN1CCC(c2c[nH]c3cc(O)ccc23)CC1	745 nM
c1ccc(Oc2ccc(Nc3ccnc4cc(-c5cccc(CN6CCOCC6)c5)ccc34)cc2)cc1	336 nM
N#Cc1ccc(N2CCN(Cc3ccc(-c4ccc(-c5nc6ccccc6[nH]5)s4)cc3)CC2)nc1	1080 nM
CCCCCCN1CCCN(Cc2ccc(C(=O)Nc3ccc(C)c(F)c3)cc2)CC1	331 nM
Cc1cc(-c2cccc(CNC3CCN(C)CC3)c2)ccc1S(=O)(=O)NC1CCC1	731 nM
Cc1cc(NC(=O)c2cccs2)ccc1OC1CCN(Cc2ccc(C#N)cc2)C1 (stereo not drawn)	847 nM
O=S(=O)(NCCN1CCCC1)c1cccc(-c2ccc(CNCc3ccccc3)cc2)c1	1000 nM
CCN(CC)CCCCCNc1c2ccc(Cl)cc2nc2ccc(OC)cc12	50.6 nM
CCN(CC)c1nc(-c2ccccc2)cc(-c2ccccc2)c1C#N	450 nM
CCN(CC)CCCC(C)Nc1c(-c2ccc(OC)cc2)cnc2ccccc12 (stereo not drawn)	894 nM
Cc1cccc(OCC2CCN(c3ncc(C(=O)NC4CC4)cc3Cl)CC2)c1	1330 nM
Cc1nn(-c2ccnc3cc(Cl)ccc23)c(C)c1C(=O)NCc1cc(Cl)cc(Cl)c1	869 nM
O=[N+]([O-])c1cccc(CNCC2CCN(Cc3ccc(O)cc3)CC2)c1	666 nM
O=C(/C=C/c1ccc(Cl)c(Cl)c1)NCCCCCN1CCCC(CNC(=O)Nc2ccc(C(F)(F)F)cc2)C1 (stereo not drawn)	668 nM
CN(C)CCN(Cc1ccccc1)c1ccc([N+](=O)[O-])cc1C(F)(F)F	776 nM
C=Cc1c(C2CCN(CCCCNC(=O)c3ccc(-c4ccc(C#N)cc4)cc3)CC2)ccc2c1CCCC2	878 nM
Fc1ccc2[nH]c(-c3ccc(-c4cccc(CN5CCCCC5)c4)cc3)nc2c1	267 nM
OC(CNc1ccnc(Nc2ccc(Cl)cc2)n1)c1ccccc1C(F)(F)F (stereo not drawn)	788 nM
Cc1nnnn1-c1ccc(C(=O)N2CCC3(CC2)CN(Cc2ccc(Cl)c(Cl)c2)C(=O)O3)cc1	181 nM
CCC(C)CN1CCC(N(C)c2cc(NC(=O)c3ccc(F)cc3)ccn2)CC1 (stereo not drawn)	977 nM

SMILES	XC50
O=C(Nc1ccc(NC2=NCCN2)cc1)Nc1ccc(NC2=NCCN2)cc1	845 nM
O=C(Nc1ccc(-c2cccc(-c3nc4cc(F)ccc4[nH]3)c2)cc1)c1cnn2cccnc12	647 nM
Cc1cc(C)cc(NC(=S)NCCCCN2CCN(c3cccc(Cl)c3)CC2)c1	1350 nM
Fc1ccc2cc(C=Cc3ccncc3)[nH]c2c1	617 nM
C[C@H](NC(=O)c1c(CN2CCC(N3CCCCC3=O)CC2)c(-c2cccs2)nc2ccccc12)C1CCCCC1	898 nM
COc1ccc(CCN(C)CCOc2ccc(NC(=O)c3ccc([N+](=O)[O-])c4c(=O)c5ccccc5[nH]c34)cc2)cc1OC	927 nM
CCC(C)Oc1ccc(CCCON2C(N)=NC(N)=NC2(C)C)cc1 (stereo not drawn)	3.2 nM
COC(=O)c1cccc(CNCc2ccc(-c3ccc(-c4nc5cc(C(F)(F)F)ccc5[nH]4)cc3)cc2)c1	298 nM
Cc1ccc(NC(=N)Nc2ncccc2OCc2c(F)cccc2Cl)cc1	1190 nM
CC(C)c1ccc(C=CC(=O)NC2CCC(CN3CCC(c4c[nH]c5ccccc45)CC3)CC2)cc1 (stereo not drawn)	807 nM
O=S(=O)(NC1CCC(CN2CCC(c3c[nH]c4ccccc34)CC2)CC1)c1ccc(Cl)c(Cl)c1 (stereo not drawn)	817 nM
Cn1cc(CN2CCCC(COC(c3ccc(F)cc3)c3ccc(F)cc3)C2)cn1 (stereo not drawn)	571 nM
Cc1ccc(S(C)(=O)=O)cc1/C=C/C(=O)O	868 nM
CC(C)CNCc1cccc(-c2cccc(CN(CCN(C)C)C(=O)NCCc3ccccc3)c2)c1	693 nM
CC(C)Oc1cc2c(cc1NS(=O)(=O)c1ccc(-c3ccc(Cl)s3)cc1F)CCN(C)CC2	712 nM
O=C(/C=C/c1ccc(Cl)c(Cl)c1)NCCCCCN1CCC(NC(=O)c2ccc([N+](=O)[O-])cc2)CC1	672 nM
Oc1ccc(CCNc2nc(NCc3ccccc3-c3ccccc3)nc(N3CCCNCC3)n2)cc1	877 nM
Oc1c(CNC2CCCCC2)cc(Cl)c2ccccc12	838 nM
O=C1CCCN1CCCNCc1cccc(-c2cccc(-c3nc4cc(F)ccc4[nH]3)c2)c1	598 nM
Cc1cc(C(=O)NCc2ccc(-c3c(C)noc3C)cc2)n(-c2ccc(Cl)cc2)n1	531 nM
Fc1ccc2[nH]c(-c3ccc(-c4cccc(CN5CCN(CCN6CCOCC6)CC5)c4)cc3)nc2c1	145 nM
O=C(Nc1cccc(-c2cccc(-c3nc4cc(C(F)(F)F)ccc4[nH]3)c2)c1)c1c[nH]cn1	206 nM
CCN1C(=O)N(CCC(C)C)C2(CCN(Cc3ccc(OC)cc3O)CC2)C1=O	868 nM
C=CCOC(=O)N1CCC(CNCc2cccc(-c3ccc(-c4nc5cccc(C)c5[nH]4)s3)c2)C1 (stereo not drawn)	248 nM
COc1ccc2ccccc2c1C=NN=c1cc(C)[nH]c2cc(C(F)(F)F)ccc12	1040 nM

SMILES	XC50
CCC(C)c1ccc(NC(=O)Nc2ccc(Cn3ncc(N4CCCNCC4)c(Cl)c3=O)cc2)cc1 (stereo not drawn)	1030 nM
COc1ccc(CCN2CCC(Nc3nc4ccccc4n3CCc3ccc(OC)cc3)CC2)cc1	657 nM
CS(=O)(=O)NCCCNCc1cccc(-c2cccc(-c3nc4cc(F)ccc4[nH]3)c2)c1	938 nM
COc1ccc2c(OC)c(CNCCCCCCNCc3ccc4cc(OC)ccc4c3OC)ccc2c1	920 nM
Cc1cc(-c2cccc(CNCc3ccccc3)c2)ccc1S(=O)(=O)NCCN1CCCC1	732 nM
CCCCCCN1CCN(Cc2cccc(NC(=O)c3cccc(OCC)c3)c2)CC1	1110 nM
CCCCC(=O)NC(c1cccs1)c1cc(Cl)c2cccnc2c1O (stereo not drawn)	380 nM
O=C(/C=C/c1ccc(Cl)c(Cl)c1)NCCCCCN1CCC(NC(=O)NC2CCCC2)CC1	631 nM
COCC(C)n1c(SCC(=O)Nc2cc(C(F)(F)F)ccc2Cl)nc2ccccc2c1=O (stereo not drawn)	130 nM
COc1ccc(-c2ccc(NC(=O)c3cccc(C#N)c3)cc2)cc1CN1CCN(C)CC1	713 nM
COc1cc(Cc2cnc(N)nc2N)cc(OCCCCCCN)c1OC	190 nM
CC(=O)Nc1ccc(C(=O)Nc2cccc(-c3ccc(-c4nc5cc(F)ccc5[nH]4)cc3)c2)cn1	174 nM
O=c1c2ccccc2[nH]c2cc(Cl)ccc12	873 nM
Oc1ccc2c(c1CNC1CCCCC1)CCCC2	938 nM
N#CC(NC(=O)C=Cc1ccccc1)c1ccccc1 (stereo not drawn)	181 nM
CC(=O)CC(=O)N1CCN(c2ccccc2)CC1	1060 nM
Cc1cc(NC(=O)[C@H](CC2CCCCC2)Nc2ccc(C#N)c3ccccc23)ccc1F	684 nM
CNC(=O)Cc1ccc(C(=O)Nc2cccc(-c3cccc(-c4nc5cccc(C)c5[nH]4)c3)c2)cc1	530 nM
CC(C)c1ccc(CN2CCCCC(NC(=O)c3cc(-c4cccc(F)c4)cs3)C2)cc1 (stereo not drawn)	945 nM
Oc1ccc(CCNc2nc(NCCCOc3ccccc3-c3cccc(C(F)(F)F)c3)nc(N3CCNCC3)n2)cc1	882 nM
O=C(Nc1cccc(C(F)(F)F)c1)Nc1ccc(Cl)c(C(F)(F)F)c1	890 nM
CC(=O)N(C)C1CCN(Cc2cccc(-c3ccc(-c4nc5cc(C(F)(F)F)ccc5[nH]4)cc3)c2)C1 (stereo not drawn)	563 nM
N=C(N)Nc1nc(-c2ccc(NC(=O)Nc3cccc(-c4csc(NC(=N)N)n4)c3)cc2)cs1	1010 nM
Clc1ccccc1CN1CCC(NCc2cccc(-n3ccnc3)c2)CC1	786 nM
Cc1cc(NC(=O)Nc2ccc3sccc3c2)c2ccccc2n1	530 nM

SMILES	XC50
O=C(NCCCN1CCOCC1)c1csc(Nc2ccc(Cl)c(Cl)c2)n1	919 nM
CNC(=O)c1ccc2nc(-c3ccc(-c4ccccc4)cc3)n(CC3CCN(CC4CCCC4)CC3)c2c1	42.5 nM
Cc1c(Cl)cccc1S(=O)(=O)Nc1ccc(CCN2CCC(N)CC2)cc1	1460 nM
COC(=O)Cn1c(C2CCN(CC3CCC(NC(=O)/C=C/c4ccc(Cl)c(Cl)c4)CC3)CC2)nc2ccccc21 (stereo not drawn)	1140 nM
CCc1c(C)nc(-n2nc(C)cc2NC(=O)c2ccc(OC)cc2OC)[nH]c1=O	827 nM
NC1CCN(c2nc(NCCc3ccc(O)cc3)nc(NCc3ccccc3-c3ccc(C(F)(F)F)cc3)n2)CC1	746 nM
N=C(NCc1ccc(O)cc1)Nc1nc(-c2ccc(OCCCn3ccnc3)cc2)cs1	749 nM
C#CCCOc1ccc2ccccc2c1CNCCCCCCNCc1c(OCCC#C)ccc2ccccc12	811 nM
O=C(NCc1ccccc1)Nc1ccc(-c2cccc(-c3nc4cc(C(F)(F)F)ccc4[nH]3)c2)cc1	662 nM
Cc1cccc2nc(-c3cccc(-c4ccc(NC(=O)Nc5ccc6c(c5)OCO6)cc4)c3)[nH]c12	145 nM
O=C(Nc1ccccc1)Nc1cccc(-c2cccc(-c3nc4cc(F)ccc4[nH]3)c2)c1	176 nM
CCOc1cc(C(=O)N[C@@H](Cc2ccccc2)[C@H](O)CNCc2cc(OC)cc(OC)c2)cc(N2CCCS2(=O)=O)c1	748 nM
COc1ccc(NC(=O)Nc2ccc(-c3ccc(-c4nc5cccc(C)c5[nH]4)s3)cc2)cc1	175 nM
OC(c1ccccc1)C1CN(Cc2ccccc2)CCC1(O)c1ccccc1 (stereo not drawn)	846 nM
O=C(/C=C/c1ccc(Cl)c(Cl)c1)N1CCC(CN2CCC(c3c[nH]c4ccccc34)C(O)C2)CC1 (stereo not drawn)	809 nM
O=C(Nc1ccccc1Oc1ccccc1)NC1CCN(c2ccnc3cc(Cl)ccc23)C1 (stereo not drawn)	167 nM
COCCN1CCN(Cc2cccc(-c3ccc(-c4nc5ccccc5[nH]4)cc3)c2)CC1	761 nM
Oc1ccc(CN2CCN(CCOC(c3ccc(F)cc3)c3ccc(F)cc3)CC2)cc1Cl	935 nM
CCOC(=O)c1cnc2c(OC)cc(OC)c(Cl)c2c1Nc1cccc(C)c1C	310 nM
O=C(Nc1ccc(-c2cccc(-c3nc4cc(C(F)(F)F)ccc4[nH]3)c2)cc1)Nc1ccc(F)c(F)c1F	706 nM
Oc1cc(-c2nc(C3(CNCc4ccc(Cl)cc4)CCCCC3)[nH]c2-c2ccncc2)ccc1Cl	125 nM
COc1ccccc1C1CCN(CCCCNC(=O)c2ccc(NC(=O)c3ccc(Cl)cc3)cc2)CC1	244 nM
C#CC(C)(CO)N1CCCC1 (stereo not drawn)	379 nM
